Experiments:
Human Melanocortin (MC3) = target: T1, Human Melanocortin (MC3) (Homo sapiens, UniProt P41968); experiment: Radioligand binding, human melanocortin MC3 membranes, FlashPlate, [125I]-NDP-αMSH; conditions: compound at 10 μM, [125I]-NDP-αMSH
T1 construct: purchased Perkin Elmer Biosignal
Outline: (§1)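 Cloned human receptor membranes were coated onto FlashPlate wells and incubated with radioligand and compound (added from a 0.5 mM DMSO daughter plate) for 1 hour at room temperature in the dark. Scintillation counting gave percent inhibition, with DMSO defining total and reference ligand defining non-specific binding.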

Human opioid (ORL1) = target: T2, Human opioid (ORL1) (Homo sapiens, UniProt P41146); experiment: Radioligand binding, human opioid ORL1 membranes, FlashPlate, [125I]-Nociceptin; conditions: compound at 10 μM, [125I]-Nociceptin
T2 construct: purchased Perkin Elmer Biosignal
T2 sequence (P41146 whole entry): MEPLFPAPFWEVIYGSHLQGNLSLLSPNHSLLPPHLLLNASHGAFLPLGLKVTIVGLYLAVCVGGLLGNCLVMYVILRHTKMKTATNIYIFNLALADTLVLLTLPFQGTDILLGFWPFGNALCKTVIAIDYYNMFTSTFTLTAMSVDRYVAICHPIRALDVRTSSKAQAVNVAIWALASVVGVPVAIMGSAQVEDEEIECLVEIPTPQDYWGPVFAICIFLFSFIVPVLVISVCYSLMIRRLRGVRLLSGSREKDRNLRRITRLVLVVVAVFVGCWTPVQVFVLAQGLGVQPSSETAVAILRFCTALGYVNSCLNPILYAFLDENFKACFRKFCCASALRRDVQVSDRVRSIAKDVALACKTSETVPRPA
Outline: as §1

Human melanocortin (MC5) = target: T3, Human melanocortin (MC5) (Homo sapiens, UniProt P33032); experiment: Radioligand binding, human melanocortin MC5 membranes, FlashPlate, [125I]-NDP-αMSH; conditions: compound at 10 μM, [125I]-NDP-αMSH
T3 construct: purchased Perkin Elmer Biosignal
T3 sequence (P33032 whole entry): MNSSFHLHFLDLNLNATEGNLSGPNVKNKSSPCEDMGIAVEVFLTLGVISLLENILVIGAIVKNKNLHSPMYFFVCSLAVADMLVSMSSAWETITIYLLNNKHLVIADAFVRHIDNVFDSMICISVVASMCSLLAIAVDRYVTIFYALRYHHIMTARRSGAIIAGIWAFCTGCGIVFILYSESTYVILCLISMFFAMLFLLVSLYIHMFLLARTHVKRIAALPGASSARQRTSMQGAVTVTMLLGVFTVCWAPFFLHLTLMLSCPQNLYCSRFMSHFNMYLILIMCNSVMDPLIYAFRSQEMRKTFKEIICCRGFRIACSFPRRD
Outline: as §1

Human κ-Opioid (KOP) = target: T4, Human κ-Opioid (KOP) (Homo sapiens, UniProt P41145); experiment: Radioligand binding, human κ-opioid (KOP) membranes, filtration, [3H]-Diprenorphine; conditions: compound at 10 μM, [3H]-Diprenorphine
T4 construct: purchased Perkin Elmer Biosignal
T4 sequence (P41145 whole entry): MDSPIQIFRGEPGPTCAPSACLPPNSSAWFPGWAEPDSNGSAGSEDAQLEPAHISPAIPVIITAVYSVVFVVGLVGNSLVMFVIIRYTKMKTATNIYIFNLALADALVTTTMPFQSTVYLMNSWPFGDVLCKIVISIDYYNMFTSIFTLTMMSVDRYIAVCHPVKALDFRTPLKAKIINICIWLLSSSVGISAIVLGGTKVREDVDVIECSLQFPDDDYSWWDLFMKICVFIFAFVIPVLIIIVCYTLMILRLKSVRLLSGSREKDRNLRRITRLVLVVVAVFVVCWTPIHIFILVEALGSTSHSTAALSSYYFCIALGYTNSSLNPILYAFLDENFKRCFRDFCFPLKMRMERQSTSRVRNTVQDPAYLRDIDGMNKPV
Outline: (§2)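 Filtration binding on cloned human receptor membranes (1 Unit/well), [125I]-Substance P for NK1 and [3H]-Diprenorphine for KOP, 1 h at room temperature. Filters PEI-presoaked, washed with cold 50 mM Tris-HCl pH 7.4, counted by scintillation; percent inhibition calculated, reference ligand defining non-specific binding.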

Human μ-opioid (MOP) = target: T5, Human μ-opioid (MOP) (Homo sapiens, UniProt P35372); experiment: Radioligand binding, human μ-opioid (MOP) membranes, FlashPlate, [3H]-Naloxone; conditions: compound at 10 μM, [3H]-Naloxone
T5 construct: purchased Perkin Elmer Biosignal
T5 sequence (P35372 whole entry): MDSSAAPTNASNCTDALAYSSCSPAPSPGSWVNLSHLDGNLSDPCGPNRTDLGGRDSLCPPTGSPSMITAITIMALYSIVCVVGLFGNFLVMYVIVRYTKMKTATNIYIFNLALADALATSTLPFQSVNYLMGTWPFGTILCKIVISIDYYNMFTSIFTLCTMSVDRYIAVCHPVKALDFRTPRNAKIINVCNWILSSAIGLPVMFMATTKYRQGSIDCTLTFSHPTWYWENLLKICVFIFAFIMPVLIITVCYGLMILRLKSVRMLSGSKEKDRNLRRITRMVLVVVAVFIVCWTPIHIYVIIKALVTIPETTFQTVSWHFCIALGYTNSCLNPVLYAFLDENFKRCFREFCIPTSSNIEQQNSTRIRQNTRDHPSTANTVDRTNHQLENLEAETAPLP
Outline: as §1

Human δ-opioid (DOP) = target: T6, Human δ-opioid (DOP) (Homo sapiens, UniProt P41143); experiment: Radioligand binding, human δ-opioid (DOP) membranes, FlashPlate, [3H]-Bremazocine; conditions: compound at 10 μM, [3H]-Bremazocine
T6 construct: purchased Perkin Elmer Biosignal
T6 sequence (P41143 whole entry): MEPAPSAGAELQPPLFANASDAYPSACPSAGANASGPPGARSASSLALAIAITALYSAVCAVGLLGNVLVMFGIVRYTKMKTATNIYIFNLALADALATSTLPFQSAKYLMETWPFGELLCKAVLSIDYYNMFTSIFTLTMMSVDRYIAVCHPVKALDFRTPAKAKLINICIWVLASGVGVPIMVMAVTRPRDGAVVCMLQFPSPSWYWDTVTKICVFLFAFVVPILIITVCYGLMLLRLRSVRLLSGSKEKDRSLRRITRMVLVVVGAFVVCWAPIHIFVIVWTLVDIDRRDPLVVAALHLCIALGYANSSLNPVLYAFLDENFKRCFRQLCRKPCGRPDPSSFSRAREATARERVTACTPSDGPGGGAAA
Outline: as §1

[1] = target: T7, Human melanin-concentrating hormone (MCH1) (Homo sapiens, UniProt Q99705); experiment: Radioligand binding, human melanin-concentrating hormone MCH1 membranes, FlashPlate, [125I]-S36057; conditions: compound at 10 μM; for A6 radioligand binding, percentage inhibition: [125I]-S36057
T7 construct: purchased Perkin Elmer Biosignal
T7 sequence (Q99705 whole entry): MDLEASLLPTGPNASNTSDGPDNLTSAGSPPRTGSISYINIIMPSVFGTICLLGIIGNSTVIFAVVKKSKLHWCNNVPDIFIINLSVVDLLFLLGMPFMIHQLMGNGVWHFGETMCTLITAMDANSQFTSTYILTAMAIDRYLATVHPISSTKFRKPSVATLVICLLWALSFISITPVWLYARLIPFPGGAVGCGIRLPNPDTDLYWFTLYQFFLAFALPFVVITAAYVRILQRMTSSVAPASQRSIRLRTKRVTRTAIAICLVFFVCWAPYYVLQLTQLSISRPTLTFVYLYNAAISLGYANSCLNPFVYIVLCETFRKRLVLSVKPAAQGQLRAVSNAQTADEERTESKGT
Outline: as §1

[2] = target: T8, Human neuropeptide Y (NPY-Y1) (Homo sapiens, UniProt P25929); experiment: Radioligand binding, human neuropeptide Y NPY-Y1 membranes, FlashPlate, [125I]-PYY; conditions: compound at 10 μM, [125I]-PYY
T8 construct: purchased Perkin Elmer Biosignal
T8 sequence (P25929 1-384): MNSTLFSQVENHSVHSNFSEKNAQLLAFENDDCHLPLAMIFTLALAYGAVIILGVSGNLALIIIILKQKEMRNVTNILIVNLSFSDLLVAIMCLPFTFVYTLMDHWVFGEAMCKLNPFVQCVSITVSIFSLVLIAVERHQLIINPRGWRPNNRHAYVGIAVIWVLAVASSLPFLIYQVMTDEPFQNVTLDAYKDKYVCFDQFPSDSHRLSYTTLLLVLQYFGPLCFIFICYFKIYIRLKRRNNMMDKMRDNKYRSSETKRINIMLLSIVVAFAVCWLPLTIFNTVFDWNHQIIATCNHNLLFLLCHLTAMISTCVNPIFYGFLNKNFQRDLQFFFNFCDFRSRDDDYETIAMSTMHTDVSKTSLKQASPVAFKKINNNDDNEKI
Outline: as §1

Human Melanocortin (MC4) = target: T9, Human Melanocortin (MC4) (Homo sapiens, UniProt P32245); experiment: Radioligand binding, human melanocortin MC4 membranes, FlashPlate, [125I]-NDP-αMSH; conditions: compound at 10 μM, [125I]-NDP-αMSH
T9 construct: purchased Perkin Elmer Biosignal
T9 sequence (P32245 whole entry): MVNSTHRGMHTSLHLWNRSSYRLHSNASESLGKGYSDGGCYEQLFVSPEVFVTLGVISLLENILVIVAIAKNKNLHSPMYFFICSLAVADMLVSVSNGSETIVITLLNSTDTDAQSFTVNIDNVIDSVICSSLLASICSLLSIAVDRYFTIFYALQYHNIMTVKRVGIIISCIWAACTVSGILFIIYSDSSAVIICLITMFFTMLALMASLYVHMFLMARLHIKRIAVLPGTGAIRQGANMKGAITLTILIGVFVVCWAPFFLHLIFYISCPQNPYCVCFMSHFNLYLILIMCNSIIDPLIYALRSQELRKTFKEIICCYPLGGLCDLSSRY
Outline: as §1

Human neurokinin (NK1) = target: T10, Human neurokinin (NK1) (Homo sapiens, UniProt P25103); experiment: Radioligand binding, human neurokinin NK1 membranes, filtration, [125I]-Substance P; conditions: compound at 10 μM, [125I]-Substance P
T10 construct: purchased Perkin Elmer Biosignal
T10 sequence (P25103 whole entry): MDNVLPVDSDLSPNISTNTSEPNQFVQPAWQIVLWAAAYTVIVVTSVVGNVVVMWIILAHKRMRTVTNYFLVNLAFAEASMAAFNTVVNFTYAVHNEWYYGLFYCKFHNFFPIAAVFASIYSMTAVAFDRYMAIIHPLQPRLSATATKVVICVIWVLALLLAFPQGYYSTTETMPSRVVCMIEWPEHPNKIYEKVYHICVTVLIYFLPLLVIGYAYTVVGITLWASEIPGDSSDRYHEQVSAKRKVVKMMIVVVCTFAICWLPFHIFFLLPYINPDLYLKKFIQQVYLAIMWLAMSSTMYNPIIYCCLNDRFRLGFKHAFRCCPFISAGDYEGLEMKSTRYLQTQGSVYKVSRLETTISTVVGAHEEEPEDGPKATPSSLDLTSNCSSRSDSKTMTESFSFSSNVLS
Outline: as §2

Mouse urotensin (mUR2) = target: T11, Mouse urotensin (mUR2) (Mus musculus, UniProt Q8VIH9); experiment: Radioligand binding, mouse urotensin mUR2 membranes, FlashPlate, [125I]-Urotensin II; conditions: compound at 10 μM, [125I]-Urotensin II
T11 construct: purchased Perkin Elmer Biosignal
T11 sequence (Q8VIH9 1-385): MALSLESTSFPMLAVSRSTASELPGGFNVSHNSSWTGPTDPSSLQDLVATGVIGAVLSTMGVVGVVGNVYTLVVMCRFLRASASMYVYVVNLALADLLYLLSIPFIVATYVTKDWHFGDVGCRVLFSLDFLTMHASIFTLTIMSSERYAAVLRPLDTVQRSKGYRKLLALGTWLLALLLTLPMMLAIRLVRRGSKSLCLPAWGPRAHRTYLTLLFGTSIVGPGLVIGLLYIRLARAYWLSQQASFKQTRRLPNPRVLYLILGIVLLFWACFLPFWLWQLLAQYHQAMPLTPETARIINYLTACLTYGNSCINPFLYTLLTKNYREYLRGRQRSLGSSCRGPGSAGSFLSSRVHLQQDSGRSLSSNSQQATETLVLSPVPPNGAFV
Outline: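 Cloned mouse urotensin (mUR2) receptor membranes from Perkin Elmer Biosignal were immobilized in FlashPlate microplates using a proprietary coating. Each well got 19.5 μl buffer, then 0.5 μl of DMSO, reference ligand, or compound. Adding 5 μl of [125I]-Urotensin II, diluted to 5× final concentration in binding buffer, started binding. Plates were sealed with TopSeal-A and incubated 1 hour at room temperature in the dark. Wells were counted for 30 seconds each on a TopCount after a 60-second delay, and percentage inhibition was calculated.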

T1 sequence (P41968 whole entry): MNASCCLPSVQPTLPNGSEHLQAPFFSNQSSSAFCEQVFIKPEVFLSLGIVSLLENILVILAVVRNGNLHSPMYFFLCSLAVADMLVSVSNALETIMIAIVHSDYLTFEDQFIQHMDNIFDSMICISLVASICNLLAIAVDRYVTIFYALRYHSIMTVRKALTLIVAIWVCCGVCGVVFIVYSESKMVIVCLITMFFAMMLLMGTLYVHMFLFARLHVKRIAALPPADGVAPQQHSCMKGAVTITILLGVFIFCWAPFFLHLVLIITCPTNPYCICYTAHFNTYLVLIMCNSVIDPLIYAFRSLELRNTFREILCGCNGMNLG

| Structure (SMILES) | A3 radioligand binding, percentage inhibition (Human Melanocortin (MC3)) | A10 radioligand binding, percentage inhibition (Human opioid (ORL1)) | A5 radioligand binding, percentage inhibition (Human melanocortin (MC5)) | A2 radioligand binding, percentage inhibition (Human κ-Opioid (KOP)) | A7 radioligand binding, percentage inhibition (Human μ-opioid (MOP)) | A1 radioligand binding, percentage inhibition (Human δ-opioid (DOP)) | A6 radioligand binding, percentage inhibition [1] | A9 radioligand binding, percentage inhibition [2] | A4 radioligand binding, percentage inhibition (Human Melanocortin (MC4)) | A8 radioligand binding, percentage inhibition (Human neurokinin (NK1)) | A11 radioligand binding, percentage inhibition (Mouse urotensin (mUR2)) | also measured |
| --- | --- | --- | --- | --- | --- | --- | --- | --- | --- | --- | --- | --- |
| CO[C@H]1[C@H](O)[C@@H](COCc2cccc(O)c2)OC(OCc2ccc(-c3ccccc3)cc2)[C@@H]1NC(=O)CCCN (stereo partly drawn) [compound 148] | − (“−” indicates less than 50% inhibition at 10 μM) | − (“−” indicates less than 50% inhibition at 10 μM) | − (“−” indicates less than 50% inhibition at 10 μM) | − (“−” indicates less than 50% inhibition at 10 μM) | − (“−” indicates less than 50% inhibition at 10 μM) | − (“−” indicates less than 50% inhibition at 10 μM) | − (“−” indicates less than 50% inhibition at 10 μM) | − (“−” indicates less than 50% inhibition at 10 μM) | − (“−” indicates less than 50% inhibition at 10 μM) | + (“+” indicates greater than 50% inhibition at 10 μM) | − (“−” indicates less than 50% inhibition at 10 μM) | – |
| CSC1OC(COCc2ccc(-c3ccccc3)cc2)C(O)C(OCc2ccccc2)C1NC(=O)CCCNC(=N)N (stereo not drawn) [compound 259] | – | – | – | – | – | – | – | – | – | – | – | A3: inhibition of radioligand binding (Human Melanocortin (MC3); FlashPlate): − (“−” indicates less than 50% inhibition at 10 μM); A10: inhibition of radioligand binding (Human opioid (ORL1); FlashPlate): − (“−” indicates less than 50% inhibition at 10 μM); A5: inhibition of radioligand binding (Human melanocortin (MC5); FlashPlate): − (“−” indicates less than 50% inhibition at 10 μM); A2: inhibition of radioligand binding (Human κ-Opioid (KOP); filtration): − (“−” indicates less than 50% inhibition at 10 μM); A7: inhibition of radioligand binding (Human μ-opioid (MOP); FlashPlate): − (“−” indicates less than 50% inhibition at 10 μM); A1: inhibition of radioligand binding (Human δ-opioid (DOP); FlashPlate): − (“−” indicates less than 50% inhibition at 10 μM); A6: inhibition of radioligand binding ([1]; [125I]-S36057, FlashPlate): − (“−” indicates less than 50% inhibition at 10 μM); A9: inhibition of radioligand binding ([2]; FlashPlate): − (“−” indicates less than 50% inhibition at 10 μM); A4: inhibition of radioligand binding (Human Melanocortin (MC4); FlashPlate): + (“+” indicates greater than 50% inhibition at 10 μM); A8: inhibition of radioligand binding (Human neurokinin (NK1); filtration): + (“+” indicates greater than 50% inhibition at 10 μM); A11: inhibition of radioligand binding (Mouse urotensin (mUR2); FlashPlate): − (“−” indicates less than 50% inhibition at 10 μM) |
| CO[C@H]1[C@H](O)[C@@H](COCc2ccccc2)OC(OCc2ccc(Cl)cc2)[C@@H]1NC(=O)CCCNC(=N)N (stereo partly drawn) [compound 104] | − (“−” indicates less than 50% inhibition at 10 μM) | − (“−” indicates less than 50% inhibition at 10 μM) | + (“+” indicates greater than 50% inhibition at 10 μM) | − (“−” indicates less than 50% inhibition at 10 μM) | + (“+” indicates greater than 50% inhibition at 10 μM) | − (“−” indicates less than 50% inhibition at 10 μM) | − (“−” indicates less than 50% inhibition at 10 μM) | − (“−” indicates less than 50% inhibition at 10 μM) | + (“+” indicates greater than 50% inhibition at 10 μM) | + (“+” indicates greater than 50% inhibition at 10 μM) | − (“−” indicates less than 50% inhibition at 10 μM) | – |
